# PubChem BioAssay (NCI)
#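 1) Cells in 96-well plates. 2) Compound, 48 h, 5 concentrations. 3) Linear interpolation between surrounding doses. 4) Unreached endpoint = highest concentration. The concentration for full growth arrest is given as TGI.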
# Tests used:
# Assay in all cases: NCI anticancer screen, dose series, 48 h
# [1] = system: 786-0 renal
# [2] = system: A549 NSCLC
# [3] = system: ACHN renal
# [4] = system: CAKI-1 renal
# [5] = system: CCRF-CEM leukemia
# [6] = system: COLO 205 colon
# [7] = system: DLD-1 colon
# [8] = system: DMS 114 small cell lung
# [9] = system: DMS 273 small cell lung
# [10] = system: EKVX NSCLC
# [11] = system: HCC-2998 colon
# [12] = system: HCT-116 colon
# [13] = system: HCT-15 colon
# [14] = system: HL-60(TB) leukemia
# [15] = system: HOP-18 NSCLC
# [16] = system: HOP-62 NSCLC
# [17] = system: HOP-92 NSCLC
# [18] = system: HT29 colon
# [19] = system: IGROV1 ovarian
# [20] = system: KM12 colon
# [21] = system: KM20L2 colon
# [22] = system: LOX IMVI melanoma
# [23] = system: LXFL 529 NSCLC
# [24] = system: M14 melanoma
# [25] = system: M19-MEL melanoma
# [26] = system: MALME-3M melanoma
# [27] = system: MOLT-4 leukemia
# [28] = system: NCI-H23 lung
# [29] = system: NCI-H460 lung
# [30] = system: NCI-H522 lung
# [31] = system: OVCAR-3 ovarian
# [32] = system: OVCAR-4 ovarian
# [33] = system: OVCAR-8 ovarian
# [34] = system: RXF 393 renal
# [35] = system: SF-268 CNS
# [36] = system: SF-295 CNS
# [37] = system: SF-539 CNS
# [38] = system: SK-MEL-2 melanoma
# [39] = system: SK-MEL-28 melanoma
# [40] = system: SK-MEL-5 melanoma
# [41] = system: SK-OV-3 ovarian
# [42] = system: SN12C renal
# [43] = system: SNB-19 CNS
# [44] = system: SNB-75 CNS
# [45] = system: SR leukemia
# [46] = system: SW-620 colon
# [47] = system: TK-10 renal
# [48] = system: UACC-257 melanoma
# [49] = system: UACC-62 melanoma
# [50] = system: UO-31 renal
# [51] = system: XF 498 CNS
# [52] = system: K-562 leukemia
# [53] = system: NCI-H226 lung
# [54] = system: OVCAR-5 ovarian
# [55] = system: RPMI-8226 leukemia
# [56] = system: SNB-78 CNS
# [57] = system: U251 CNS
# [58] = system: A498 renal
# [59] = system: RXF-631 renal
structure (smiles),measurement,setting,value
COc1cc(CC2C(=O)OCC2[C@@H](OC(C)=O)c2ccc3c(c2)OCO3)c(Br)c(OC)c1OC (some centres undefined),TGI,[1],> 100 µM
same,TGI,[2],> 100 µM
same,TGI,[3],> 100 µM
same,TGI,[4],> 100 µM
same,TGI,[5],> 100 µM
same,TGI,[6],> 100 µM
same,TGI,[7],> 100 µM
same,TGI,[8],> 100 µM
same,TGI,[9],> 100 µM
same,TGI,[10],> 100 µM
same,TGI,[11],> 100 µM
same,TGI,[12],> 100 µM
same,TGI,[13],> 100 µM
same,TGI,[14],> 100 µM
same,TGI,[15],> 100 µM
same,TGI,[16],> 100 µM
same,TGI,[17],92.7 µM
same,TGI,[18],> 100 µM
same,TGI,[19],> 100 µM
same,TGI,[20],> 100 µM
same,TGI,[21],> 100 µM
same,TGI,[22],> 100 µM
same,TGI,[23],> 100 µM
same,TGI,[24],> 100 µM
same,TGI,[25],> 100 µM
same,TGI,[26],> 100 µM
same,TGI,[27],> 100 µM
same,TGI,[28],> 100 µM
same,TGI,[29],> 100 µM
same,TGI,[30],> 100 µM
same,TGI,[31],> 100 µM
same,TGI,[32],> 100 µM
same,TGI,[33],> 100 µM
same,TGI,[34],> 100 µM
same,TGI,[35],> 100 µM
same,TGI,[36],> 100 µM
same,TGI,[37],> 100 µM
same,TGI,[38],> 100 µM
same,TGI,[39],> 100 µM
same,TGI,[40],> 100 µM
same,TGI,[41],> 100 µM
same,TGI,[42],> 100 µM
same,TGI,[43],> 100 µM
same,TGI,[44],> 100 µM
same,TGI,[45],> 100 µM
same,TGI,[46],> 100 µM
same,TGI,[47],> 100 µM
same,TGI,[48],> 100 µM
same,TGI,[49],> 100 µM
same,TGI,[50],> 100 µM
same,TGI,[51],> 100 µM
COc1ccc(OC)c(-c2cc(=O)c3cc4c(cc3[nH]2)OCO4)c1,TGI,[1],> 100 µM
same,TGI,[2],> 71.3 µM
same,TGI,[3],> 80.2 µM
same,TGI,[4],> 65.7 µM
same,TGI,[5],> 100 µM
same,TGI,[6],7.93 µM
same,TGI,[7],> 100 µM
same,TGI,[8],13.9 µM
same,TGI,[9],20.9 µM
same,TGI,[10],> 100 µM
same,TGI,[11],17.6 µM
same,TGI,[12],> 35.7 µM
same,TGI,[13],> 55.5 µM
same,TGI,[14],> 26.1 µM
same,TGI,[15],> 100 µM
same,TGI,[16],67.7 µM
same,TGI,[17],41.3 µM
same,TGI,[18],> 100 µM
same,TGI,[19],> 100 µM
same,TGI,[52],> 100 µM
same,TGI,[20],> 46 µM
same,TGI,[21],23.7 µM
same,TGI,[22],> 100 µM
same,TGI,[23],49.6 µM
same,TGI,[24],> 100 µM
same,TGI,[25],> 100 µM
same,TGI,[26],> 100 µM
same,TGI,[27],> 84.9 µM
same,TGI,[53],55.6 µM
same,TGI,[28],15.4 µM
same,TGI,[29],> 37.2 µM
same,TGI,[30],9.26 µM
same,TGI,[31],> 55.2 µM
same,TGI,[32],> 100 µM
same,TGI,[54],> 100 µM
same,TGI,[33],> 68.5 µM
same,TGI,[55],> 46.6 µM
same,TGI,[34],16.5 µM
same,TGI,[35],> 100 µM
same,TGI,[36],> 27.6 µM
same,TGI,[37],16.2 µM
same,TGI,[38],> 51.3 µM
same,TGI,[39],> 100 µM
same,TGI,[40],28 µM
same,TGI,[41],17.7 µM
same,TGI,[42],> 87.5 µM
same,TGI,[43],> 100 µM
same,TGI,[44],> 38.1 µM
same,TGI,[56],> 100 µM
same,TGI,[45],> 27.9 µM
same,TGI,[46],> 100 µM
same,TGI,[47],> 83.3 µM
same,TGI,[57],> 77.9 µM
same,TGI,[48],> 100 µM
same,TGI,[49],> 100 µM
same,TGI,[50],> 100 µM
same,TGI,[51],35.9 µM
O=c1sc(-c2nc3ccccc3[nH]2)c(/N=C/c2ccccc2)n1-c1ccccc1,TGI,[1],> 100 µM
same,TGI,[58],> 100 µM
same,TGI,[2],> 100 µM
same,TGI,[3],> 100 µM
same,TGI,[4],> 100 µM
same,TGI,[5],> 100 µM
same,TGI,[6],> 100 µM
same,TGI,[7],> 100 µM
same,TGI,[9],> 100 µM
same,TGI,[10],> 100 µM
same,TGI,[11],> 100 µM
same,TGI,[13],> 100 µM
same,TGI,[14],> 100 µM
same,TGI,[15],> 100 µM
same,TGI,[16],73.7 µM
same,TGI,[18],> 100 µM
same,TGI,[19],> 100 µM
same,TGI,[52],> 100 µM
same,TGI,[20],> 100 µM
same,TGI,[22],> 100 µM
same,TGI,[23],> 100 µM
same,TGI,[24],> 100 µM
same,TGI,[25],> 100 µM
same,TGI,[26],> 100 µM
same,TGI,[27],> 100 µM
same,TGI,[53],38.3 µM
same,TGI,[28],> 100 µM
same,TGI,[30],> 100 µM
same,TGI,[31],65.6 µM
same,TGI,[32],26.7 µM
same,TGI,[54],> 100 µM
same,TGI,[33],> 100 µM
same,TGI,[55],> 100 µM
same,TGI,[34],> 100 µM
same,TGI,[35],> 100 µM
same,TGI,[36],> 100 µM
same,TGI,[37],> 100 µM
same,TGI,[38],> 100 µM
same,TGI,[39],> 100 µM
same,TGI,[40],> 100 µM
same,TGI,[41],89.1 µM
same,TGI,[42],> 100 µM
same,TGI,[43],> 100 µM
same,TGI,[44],57.8 µM
same,TGI,[56],> 100 µM
same,TGI,[46],> 100 µM
same,TGI,[47],> 100 µM
same,TGI,[57],> 100 µM
same,TGI,[48],> 100 µM
same,TGI,[49],> 100 µM
same,TGI,[50],> 100 µM
same,TGI,[51],54.7 µM
Cc1cc2c(C)nn(Cc3ccccc3Cl)c2c(C#N)c1C,TGI,[1],> 100 µM
same,TGI,[2],> 100 µM
same,TGI,[3],> 100 µM
same,TGI,[5],> 100 µM
same,TGI,[6],> 100 µM
same,TGI,[7],> 100 µM
same,TGI,[9],> 100 µM
same,TGI,[10],> 100 µM
same,TGI,[11],> 100 µM
same,TGI,[12],> 100 µM
same,TGI,[13],> 100 µM
same,TGI,[14],> 100 µM
same,TGI,[15],> 100 µM
same,TGI,[16],> 100 µM
same,TGI,[17],> 100 µM
same,TGI,[18],> 100 µM
same,TGI,[19],> 100 µM
same,TGI,[21],> 100 µM
same,TGI,[22],> 100 µM
same,TGI,[23],> 100 µM
same,TGI,[25],> 100 µM
same,TGI,[26],> 100 µM
same,TGI,[27],> 100 µM
same,TGI,[53],> 100 µM
same,TGI,[28],> 100 µM
same,TGI,[29],> 100 µM
same,TGI,[31],> 100 µM
same,TGI,[54],> 100 µM
same,TGI,[33],> 100 µM
same,TGI,[55],> 100 µM
same,TGI,[34],> 100 µM
same,TGI,[59],> 100 µM
same,TGI,[35],> 100 µM
same,TGI,[36],> 100 µM
same,TGI,[37],> 100 µM
same,TGI,[38],> 100 µM
same,TGI,[39],> 100 µM
same,TGI,[41],> 100 µM
same,TGI,[42],> 100 µM
same,TGI,[43],> 100 µM
same,TGI,[44],> 100 µM
same,TGI,[45],> 100 µM
same,TGI,[46],> 100 µM
same,TGI,[47],> 100 µM
same,TGI,[57],> 100 µM
same,TGI,[48],> 100 µM
same,TGI,[49],> 100 µM
same,TGI,[50],> 100 µM
same,TGI,[51],> 100 µM
